According to patent US8901168B2 (priority 2007, dated 2014):

Key:
IFN-γ = tested on: IFN-γ; set-up: species or system BALB/c mice; conditions: mouse, in vivo
[1] = mice; for total vitamin E accumulation in adipose tissues: compared to unsupplemented control mice; for δ-T3 concentration in adipose tissue: compared to the rest of the groups
splenocytes = tested on: splenocytes; set-up: species or system BALB/c mice; conditions: mouse, in vivo
[2] = 1 mg oral gavage daily for 56 days

Row | Compound | IFN-γ production following Con A stimulation compared to α-T treated mice (IFN-γ) | total vitamin E levels in adipose tissues, ranking of groups ([1]; 1 mg oral gavage daily for 56 days, between supplemented groups) | total vitamin E accumulation in adipose tissues [1, 2] | δ-T3 concentration in adipose tissue ([1]; 56 days) | splenocyte proliferation, comparison between vitamin E treated groups (splenocytes) | splenocyte proliferative response to Con A (splenocytes) | splenocyte proliferative response to TT (splenocytes) | α-T (tocopherol) concentration in adipose tissue ([1]; 56 days, compared to the rest of the animal groups) | γ-T3 concentration in adipose tissue ([1]; 56 days, compared to the rest of the animals)
1 | CC(C)=CCC/C(C)=C/CC/C(C)=C/CC[C@]1(C)CCc2cc(O)cc(C)c2O1 [δ-T3, δ-tocotrienol] | significant (P<0.05) increase | highest | significant (P<0.05) levels of total vitamin E accumulation | highest in the δ-T3 fed animals and the levels were highly significant (P<0.01) | slightly increased | significantly (P<0.05) greater proliferative response | significantly (P<0.05) greater proliferative response |  | 
2 | Cc1c(C)c2c(c(C)c1O)CC[C@@](C)(CCC[C@H](C)CCC[C@H](C)CCCC(C)C)O2 [α-T, α-tocopherol] |  |  | significant (P<0.05) levels of total vitamin E accumulation | did not have any detectable amounts |  | significantly (P<0.05) greater proliferative response | significantly (P<0.05) greater proliferative response | significantly (P<0.05) high concentrations of tocopherol | did not have any detectable amounts
